Data on eleven compounds can be found in US10849897B2, “Pyridyl derivatives as bromodomain inhibitors” (GLAXOSMITHKLINE INTELLECTUAL PROPERTY (NO.2) LIMITED, priority 2017, dated 2020).

One test addresses T1, BRD4 BD2 (Homo sapiens, UniProt O60885, Y97A).
T1 construct: BRD4 (1-477) (Y97A) and (Y390A); made in house; host or cells: E. coli (pET15b vector)
Description: BRD4 BD2 TR-FRET competition assay. The note with it: TR-FRET competition with Reference Compound X; read-out: pIC50 in the BRD4 BD2 assay (converted). The test is classed as binding. On the procedure: (§1) Bromodomain binding was assessed utilising a time resolved fluorescent resonance energy transfer (TR-FRET) competition assay. To enable this approach a known, high affinity, pan-BET interacting small molecule was labelled with Alexa Fluor® 647, which is a far-red-fluorescent dye (Reference Compound X). Reference Compound X acts as a reporter of bromodomain binding and is the acceptor fluorophore component of the TR-FRET pair. Europium chelate, conjugated to an anti-6*His antibody, was utilised as the donor fluorophore in the TR-FRET pair. The anti-6*His antibody binds selectively to a six Histidine purification epitope added to the amino-terminus of each of the BET tandem bromodomain protein constructs used in this study. A TR-FRET signal is generated when the donor and acceptor fluorophores are in close proximity, between 20-80 Å, which is enabled in this assay by binding of Reference Compound X to the bromodomain protein.
(§2) In order to generate a TR-FRET signal, donor fluorophore is excited by a laser at λ337 nm, which subsequently leads to emission at λ618 nm. If the acceptor fluorophore is in close proximity then energy transfer can occur, which leads to emission of Alexa Fluor® 647 at λ665 nm. In the presence of competitor compound, Reference Compound X can be displaced from binding to the bromodomain. If displacement occurs, the acceptor fluorophore is no longer in proximity to the donor fluorophore, which prevents fluorescent energy transfer and, subsequently, a loss of Alexa Fluor® 647 emission at λ665 nm.
(§3) The competition of the compounds of formula (I) with Reference Compound X for binding to the BET family (BRD2, BRD3, BRD4 and BRDT) was assessed using protein truncates spanning both bromodomain 1 (BD1) and bromodomain 2 (BD2). In order to monitor differential binding to either BD1 or BD2, single residue mutations of key tyrosines to alanine were made in the acetyl lysine binding pockets. To validate this approach, a double residue mutant tandem domain protein was produced for each of the BET family members. Utilising a Fluorescence Polarisation approach, binding affinities for each of the single and double mutants for Reference Compound X were determined. […] The affinities of the single mutated bromdomain tandem proteins for Reference Compound X were equi-potent with the corresponding non-mutated BET protein. […] In the TR-FRET competition assay, Reference Compound X is used at a concentration that is equivalent to the Kd for the non-mutated bromodomain, which ensures that no binding at the mutated bromodomain is detected.
(§4) Recombinant Human Bromodomains [(BRD2 (1-473) (Y113A) and (Y386A), BRD3 (1-435) (Y73A) and (Y348A) BRD4 (1-477) (Y97A) and (Y390A) and BRDT (1-397) (Y66A) and (Y309A)] were expressed in E. coli cells (in pET15b vector for BRD2/3/4 and in pET28a vector for BRDT) with a 6-His tag at the N-terminal. The His-tagged Bromodomain pellet was resuspended in 50 mM HEPES (pH 7.5), 300 mM NaCl, 10 mM imidazole & 1 μL/mL protease inhibitor cocktail and extracted from the E. coli cells using sonication and purified using a nickel sepharose high performance column, the proteins were washed and then eluted with a linear gradient of 0-500 mM imidazole with buffer 50 mM HEPES (pH 7.5), 150 mM NaCl, 500 mM imidazole, over 20 column volumes. Final purification was completed by Superdex 200 prep grade size exclusion column. Purified protein was stored at −80° C. in 20 mM HEPES pH 7.5 and 100 mM NaCl. Protein identity was confirmed by peptide mass fingerprinting and predicted molecular weight confirmed by mass spectrometry.
All assay components were dissolved in an assay buffer composing of 50 mM HEPES pH 7.4, 50 mM NaCl, 5% Glycerol, 1 mM DTT and 1 mM CHAPS. Reference Compound X was diluted, in assay buffer containing 20 nM single mutant, tandem bromodomain protein, to a concentration equivalent to 2*Kd for this bromodomain. […]

The next test relates to BRD4 BD1 and BRD4 BD2. Description: BRD4 BD1 and BRD4 BD2 TR-FRET assays (selectivity for BRD4 BD2 over BRD4 BD1). The test is classed as binding, Human. The note with it: for selectivity for BRD4 BD2 over BRD4 BD1: BRD4 BD2 pIC50 − BRD4 BD1 pIC50, in at least one of the TR-FRET assays. How it is done:
as §1, §2, §3
as §4, with “Protein identity was confirmed by peptide mass fingerprinting and predicted molecular weight confirmed by mass spectrometry.” left out
(TR-FRET usually uses a lanthanide donor and a delayed reading to cut background.)

The test system of test [1] is BET family (BRD2, BRD3, BRD4 and BRDT) tandem bromodomain proteins. The experiment in a line: Fluorescence Polarisation binding of Reference Compound X to single and double mutant tandem BET proteins. Further details: species or system Human. The note with it: single residue (Tyr to Ala) mutants. On the procedure:
as §3, with “detected. […]” for “detected.”
A general note: Fluorescence polarisation rises when a labelled molecule tumbles more slowly, as on binding a larger partner.

Take `CNC(=O)c1cc(C(=O)NCC(C)O)cc(Cc2ccccc2)n1` (racemic) [Example 61, (+/−)-6-Benzyl-N^4-(2-hydroxypropyl)-N^2-methylpyridine-2,4-dicarboxamide]: the IC50 on BRD4 BD2 is 1000 to 10000 nM.

Regarding `CNC(=O)c1cc(C(=O)Nc2cn[nH]c2)cc(C(OC)c2ccccc2)n1` (single isomer, unassigned) [Example 55, (S*)-6-(Methoxy(phenyl)methyl)-N^2-methyl-N^4-(1H-pyrazol-4-yl)pyridine-2,4-dicarboxamide], the IC50 on BRD4 BD2 was 20 nM. Moreover, the “selectivity for BRD4 BD2 over BRD4 BD1” value in the test on BRD4 BD1 and BRD4 BD2 worked out at 2.7 log unit.

Turning to `CNC(=O)c1cc(C(=O)Nc2cnn(C)c2)cc(Cc2ccccc2)n1` [Example 11, 6-Benzyl-N^2-methyl-N^4-(1-methyl-1H-pyrazol-4-yl)pyridine-2,4-dicarboxamide], at BRD4 BD2, the IC50 is 15.8 nM. In the test with BRD4 BD1 and BRD4 BD2, the “selectivity for BRD4 BD2 over BRD4 BD1” value is given as 2.7 log unit.

Consider `CNC(=O)c1cc(C(=O)Nc2cn[nH]c2)cc(Cc2ccccc2)n1` [Example 12, 6-Benzyl-N^2-methyl-N^4-(1H-pyrazol-4-yl)pyridine-2,4-dicarboxamide], for which the IC50 at BRD4 BD2 was 20 nM. Further, the “selectivity for BRD4 BD2 over BRD4 BD1” value with BRD4 BD1 and BRD4 BD2 is on record as 2.7 log unit.

On to `CNC(=O)c1cc(C(=O)Nc2cn[nH]c2)cc([C@@H](C)c2ccccc2)n1` [Example 16, (S)-N^2-Methyl-6-(1-phenylethyl)-N^4-(1H-pyrazol-4-yl)pyridine-2,4-dicarboxamide], for which the IC50 on BRD4 BD2 is 10 nM. The “selectivity for BRD4 BD2 over BRD4 BD1” value in the test on BRD4 BD1 and BRD4 BD2 was 3.0 log unit. The “fold selective for BRD4 BD2 over BRD4 BD1” value in the test on BRD4 BD1 and BRD4 BD2 (from the pIC50 difference) is on record as 1000 fold.

Turning to `CNC(=O)c1cc(C(=O)NCCOC)cc(Cc2cccc(OC)c2)n1` [Example 59, 6-(3-Methoxybenzyl)-N^4-(2-methoxyethyl)-N^2-methylpyridine-2,4-dicarboxamide], on BRD4 BD2, the IC50 is 1000 to 10000 nM.

For the compound `CNC(=O)c1cc(C(=O)NC(C)(C)C)cc(Cc2ccccc2)n1` [Example 66, 6-Benzyl-N^4-(tert-butyl)-N^2-methylpyridine-2,4-dicarboxamide], the IC50 on BRD4 BD2 was 1000 to 10000 nM.

As to `CNC(=O)c1cc(C(=O)Nc2nc(C)no2)cc([C@@H](C)c2ccccc2)n1` [Example 74, (S)-N^2-Methyl-N^4-(3-methyl-1,2,4-oxadiazol-5-yl)-6-(1-phenylethyl)pyridine-2,4-dicarboxamide], the IC50 at BRD4 BD2 was 1000 to 10000 nM.

Regarding `CNC(=O)c1cc(C(=O)Nc2nnc(C)o2)cc([C@@H](C)c2ccccc2)n1` [Example 75, (S)-N^2-Methyl-N^4-(5-methyl-1,3,4-oxadiazol-2-yl)-6-(1-phenylethyl)pyridine-2,4-dicarboxamide], the IC50 at BRD4 BD2 is 1000 to 10000 nM.

`CNC(=O)c1cc(C(=O)Nc2nncn2C)cc([C@@H](C)c2ccccc2)n1` [Example 76, (S)-N^2-Methyl-N^4-(4-methyl-4H-1,2,4-triazol-3-yl)-6-(1-phenylethyl)pyridine-2,4-dicarboxamide]: the IC50 on BRD4 BD2 is 1000 to 10000 nM.

`COc1ccc2c(c1)C(c1ccc(Cl)cc1)=N[C@@H](CC(=O)NCCCCCNC(=O)CCCCCC1(C)/C(=C/C=C/C=C/C3=[N+](CCCCS(=O)(=O)O)c4ccc(S(=O)(=O)O)cc4C3(C)C)N(CCCCS(=O)(=O)[O-])c3ccc(S(=O)(=O)O)cc31)c1nnc(C)n1-2` (stereo partly shown) [Reference Compound X]: in test [1], the “affinity of single mutated bromodomain tandem proteins compared with corresponding non-mutated BET protein” value was “equi-potent”.
